Measured values published in US20220145265A1, “IN VITRO EQUINE MODEL SYSTEMS AND THEIR INTEGRATION INTO HORSE-ON-A-CHIP PLATFORM” (University of Kentucky Research Foundation, priority 2020, published 2022).

Key:
CYP3A89 = system: CYP3A89
Text: FIG. 5A-51I. Development of an equine intestine-on-a-chip. FIG. 5A: Schematic representation of equine intestine-on-a-chip, including the top view of the Emulate chip (left), and a vertical slice (right) showing the epithelial channel (1, blue), the microvasculature channel (2, pink), and microchannels populated by organoid-derived intestinal epithelial cells (3) and endothelial cells (4), separated by flexible, porous membrane coated by extracellular matrices (5). FIG. 5B: Brightfield image of an equine intestine-chip cultured for 12 days in the presence of fluid flow and stretch (30 μl/h flow, 10% strain, 0.2 Hz). FIG. 5C: High magnification, phase contrast image of the intestinal epithelium channel depicted in b. […] FIG. 5E: Intestinal epithelium height measured in situ over a 400 μm section of the intestine-chip depicted in b. […] FIG. 5G: qPCR analysis of transcripts associated with intestine cell differentiation in organ-chips compared to 3D enteroid culture. (FIG. 5H: Testosterone conversion by epithelial CYP3A89 in equine intestine-chips was monitored by LC-MS/MS. Graph depicts the percent conversion of testosterone to 6-hydroxytestosterone at two concentrations. Scale bar represents 100 μm in panels 5B, 5C, 5D, and 5F. Schematic in 5A adapted and modified from Kasendra et al., eLife 2020.
Finally, studies were performed to evaluate the suitability of intestine chips for drug metabolism and CYP3A89 (CYP3A4 homolog (24)) induction. For these experiments, we inoculated testosterone into the inlet reservoir for the epithelial channel, flowed the testosterone-containing media through the chip at a rate of 30 μl/h, and collected samples from the effluent chambers from both the epithelial and vasculature channels.

cellular esterase(s) [1] = test: Ciclesonide pro-drug hydrolysis to des-CIC in equine airway (bronchioalveolar) organoid-derived transwells; format: in vitro ADME; conditions: 50 μM or 500 μM Ciclesonide, over time
Text: (§1) FIG. 10A-10E. Identification and quantification of Ciclesonide metabolites produced by equine airway and hepatic organoid-derived tissue systems. FIG. 10A includes the structure of Ciclesonide, which is a pro-drug that is metabolized in the lungs to the active form, desisobutyryl-Ciclesonide (des-CIC). FIG. 10B includes MS spectra showing representative fragmentation pattern of kinetic des-CIC conversion from CIC hydrolysis generated by equine bronchioalveolar organoid-derived transwells treated with pro-drug. FIGS. 10C-10D plot quantification of des-CIC metabolite produced by equine airway organoid-derived transwells treated with 50 μM (FIG. 10C) or 500 μM (FIG. 10D) Ciclesonide as a function of time. FIG. 10E plots quantification of des-CIC metabolite produced by equine hepatic organoid-derived transwells treated with 500 μM Ciclesonide as a function of time. […]
FIG. 10B, includes representative fragmentation pattern of kinetic des-CIC conversion from CIC hydrolysis generated by equine bronchioalveolar organoid-derived transwells treated with pro-drug. […] Quantification of des-CIC metabolite produced by equine airway organoid-derived transwells treated with 50 μM (FIG. 10C) or 500 μM (FIG. 10D) Ciclesonide over time. […]

cellular esterase(s) [2] = test: Ciclesonide pro-drug hydrolysis to des-CIC in equine hepatic organoid-derived transwells; format: in vitro ADME; conditions: 500 μM Ciclesonide, over time
Text: as §1
Apical samples were obtained from the transwell upper chamber containing the bronchioalveolar tissue; basolateral samples were obtained from the lower transwell chamber containing untreated medium. FIG. 10E includes the results of quantification of des-CIC metabolite produced by equine hepatic organoid-derived transwells treated with 500 μM Ciclesonide. […]

SMILES	channel in which testosterone metabolites were detected (CYP3A89)	time by which CYP3A89-mediated conversion of testosterone to 6-hydroxytestosterone was revealed (CYP3A89; equine intestine-chip, flow 30 μl/h, effluent samples, post-treatment) [h]	time of peak testosterone metabolism (CYP3A89; horse)	pro-drug hydrolysis to desisobutyryl-Ciclesonide (kinetics in words) (cellular esterase(s) [1])	pro-drug hydrolysis to desisobutyryl-Ciclesonide (kinetics in words) (cellular esterase(s) [2])
C[C@]12CC[C@H]3[C@@H](CCC4=CC(=O)CC[C@@]43C)[C@@H]1CC[C@@H]2O [testosterone]	detected only in the epithelial channel effluent	≤ 1	roughly 3 h		
CC(C)C(=O)OCC(=O)[C@@]12O[C@H](C3CCCCC3)O[C@@H]1C[C@H]1[C@@H]3CCC4=CC(=O)C=C[C@]4(C)[C@H]3[C@@H](O)C[C@@]12C [Ciclesonide]				rapid and linear	rapid and linear
